Measured values reported in PubChem BioAssay AID330 (DTP/NCI, 2004).
Values joined by “and” are separate entries in the source; they are usually repeats but may differ in a detail not shown here. Equal entries are not always repeated. Inconclusive results and toxic doses are left out. The calls were made as follows: active = survival T/C of 150% or more; inactive = T/C below 125% in these data.

Test system: P388 leukemia ip, CD2F1 mice, survival T/C
Test: NCI In Vivo Anticancer Drug Screen. Data for tumor model P388 Leukemia (intraperitoneal) in CD2F1 (CDF1) mice
Settings: endpoint: median survival time, higher = longer survival
Summary of the method: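 Mice carrying the transplanted tumor received test compound or vehicle. Survival was recorded in each group, and the value is the treated-group measurement divided by that of the vehicle-treated control group.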

Measured: T/C

Cc1cn(C2CC(O)C(CO)O2)c(=O)[nH]c1=O (stereo not drawn)
inactive: dose: 16.0 mg/kg/injection, schedule: Q01DX009 (ip), vehicle: saline 100 % of control and 105 % of control | dose: 32.0 mg/kg/injection, schedule: Q01DX009 (ip), vehicle: saline with Tween-80 109 % of control | dose: 64.0 mg/kg/injection, schedule: Q01DX009 (ip), vehicle: saline with Tween-80 101 % of control | dose: 128.0 mg/kg/injection, schedule: Q01DX009 (ip), vehicle: saline with Tween-80 101 % of control | dose: 150.0 mg/kg/injection, schedule: Q02HX012 (ip), vehicle: saline 96 % of control | dose: 150.0 mg/kg/injection, schedule: Q04DX012 (ip), vehicle: saline 104 % of control | dose: 200.0 mg/kg/injection, schedule: Q02HX012 (ip), vehicle: saline 98 % of control | dose: 200.0 mg/kg/injection, schedule: Q04DX012 (ip), vehicle: saline 102 % of control | dose: 250.0 mg/kg/injection, schedule: Q01DX001 (ip), vehicle: saline 98 % of control | dose: 250.0 mg/kg/injection, schedule: Q01DX009 (ip), vehicle: saline 100 % of control | dose: 256.0 mg/kg/injection, schedule: Q01DX009 (ip), vehicle: saline with Tween-80 89 % of control | dose: 300.0 mg/kg/injection, schedule: Q02HX012 (ip), vehicle: saline 101 % of control | dose: 300.0 mg/kg/injection, schedule: Q04DX012 (ip), vehicle: saline 100 % of control | dose: 375.0 mg/kg/injection, schedule: Q01DX009 (ip), vehicle: saline 107 % of control and 95 % of control | dose: 400.0 mg/kg/injection, schedule: Q02HX012 (ip), vehicle: saline 109 % of control | dose: 400.0 mg/kg/injection, schedule: Q04DX012 (ip), vehicle: saline 105 % of control | dose: 500.0 mg/kg/injection, schedule: Q01DX001 (ip), vehicle: saline 98 % of control | dose: 512.0 mg/kg/injection, schedule: Q01DX009 (ip), vehicle: saline with Tween-80 108 % of control | dose: 512.0 mg/kg/injection, schedule: Q01DX009 (ip), vehicle: saline 99 % of control and 102 % of control | dose: 600.0 mg/kg/injection, schedule: Q02HX012 (ip), vehicle: saline 108 % of control | dose: 600.0 mg/kg/injection, schedule: Q04DX012 (ip), vehicle: saline 102 % of control | dose: 750.0 mg/kg/injection, schedule: Q01DX009 (ip), vehicle: saline 115 % of control and 97 % of control | dose: 1000.0 mg/kg/injection, schedule: Q01DX009 (ip), vehicle: saline 101 % of control and 103 % of control and 110 % of control | dose: 1500.0 mg/kg/injection, schedule: Q01DX009 (ip), vehicle: saline 108 % of control

O=C(NCCCC1NC(=O)/C(=C(O)/C=C/C2CCCCC2)C1=O)OCc1ccccc1 (stereo not drawn)
inactive: dose: 50.0 mg/kg/injection, schedule: Q01DX005 (ip), vehicle: saline with Tween-80 100 % of control | dose: 100.0 mg/kg/injection, schedule: Q01DX005 (ip), vehicle: saline with Tween-80 95 % of control | dose: 200.0 mg/kg/injection, schedule: Q01DX005 (ip), vehicle: saline with Tween-80 100 % of control

Cc1ccc(C)c(NC(=O)C#N)c1
inactive: dose: 60.0 mg/kg/injection, schedule: Q01DX005 (ip), vehicle: saline with Tween-80 93 % of control
